≈ marks a conversion by molar mass, not a printed value.
Columns and labels:
Type in all cases: cell-based
[1] = tested on: Staphylococcus aureus ATCC 9144; assay: Minimum inhibitory concentration (MIC), further microorganisms; details: Table 8; * = significant inhibition of growth, but not complete inhibition
How it was run: (§1)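 Organisms at 1–5×10^6 CFU/ml were diluted 1:100 into CASO broth (bacteria, yeast) or Sabouraud 2% glucose broth (mould) over 1:2 DMSO dilution series of compound. Bacteria and yeast were incubated 48 h at 37 °C and mould 5 days at 28 °C. MIC is the lowest concentration giving ≤20% growth versus control by OD620, in duplicate.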

[2] = tested on: Micrococcus luteus ATCC 9341; assay: as above; details: Table 8; * = significant inhibition of growth, but not complete inhibition
How it was run: as §1

[3] = tested on: Aspergillus niger ATCC 6275; assay: as above; details: Table 8; * = significant inhibition of growth, but not complete inhibition
How it was run: as §1

[4] = tested on: S. epidermidis ATCC 12228; assay: as above; details: Table 8; * = significant inhibition of growth, but not complete inhibition
How it was run: as §1

[5] = tested on: Salmonella choleraesuis ATCC 10708; assay: as above; details: Table 8
How it was run: as §1

[6] = tested on: Trichophyton mentagrophytes ATCC 9533; assay: as above; details: Table 8; * = significant inhibition of growth, but not complete inhibition
How it was run: as §1

[7] = tested on: Pseudomonas aeruginosa CIP A-22; assay: as above; details: Table 8
How it was run: as §1

[8] = tested on: Epidermophyton floccosum DSM 10709; assay: as above; details: Table 8; * = significant inhibition of growth, but not complete inhibition
How it was run: as §1

[9] = tested on: Enterococcus hirae ATCC 10541; assay: as above; details: Table 8; * = significant inhibition of growth, but not complete inhibition
How it was run: as §1

[10] = tested on: Candida albicans ATCC 10231; assay: as above; details: Table 8; * = significant inhibition of growth, but not complete inhibition
How it was run: as §1

[11] = tested on: Klebsiella pneumonia ATCC 4352; assay: as above; details: Table 8; * = significant inhibition of growth, but not complete inhibition
How it was run: as §1

[12] = tested on: Staphylococcus hominis DMS 20328; assay: Minimum inhibitory concentration (MIC) in microtitre plates; details: Table 7; 48 hours at 37° C.; MIC = ≦20% growth compared to control
How it was run: (§2)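 Compounds in DMSO, 1:2 dilution series; bacteria at 1–5×10^6 CFU/ml diluted 1:100 in CASO broth. Incubation 48 h at 37° C, growth read as OD 620 nm. MIC is the lowest concentration giving ≤20% growth relative to control; duplicates.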

[13] = tested on: Escherichia coli NCTC 8196; assay: as above; details: for Minimum inhibitory concentration (MIC) E. coli: Table 7, 48 hours at 37° C., MIC = ≦20% growth compared to control; for Minimum inhibitory concentration (MIC) E. coli NCTC 8196: Table 8, * = significant inhibition of growth, but not complete inhibition
How it was run: as §2

COCCc1cc(NCCCCCCCCN)nc(-c2ccccn2)n1 [compound 77]
Minimum inhibitory concentration (MIC) Staphylococcus aureus ATCC 9144 [1]: >60 µg/mL
Minimum inhibitory concentration (MIC) Micrococcus luteus ATCC 9341 [2]: >60 µg/mL
Minimum inhibitory concentration (MIC) Aspergillus niger ATCC 6275 [3]: >60 µg/mL
Minimum inhibitory concentration (MIC) S. epidermidis ATCC 12228 [4]: >60 µg/mL
Minimum inhibitory concentration (MIC) Salmonella choleraesuis ATCC 10708 [5]: >60 µg/mL
Minimum inhibitory concentration (MIC) Trichophyton mentagrophytes ATCC 9533 [6]: >60 µg/mL
Minimum inhibitory concentration (MIC) Pseudomonas aeruginosa CIP A-22 [7]: >60 µg/mL
Minimum inhibitory concentration (MIC) Epidermophyton floccosum DSM 10709 [8]: >60 µg/mL
Minimum inhibitory concentration (MIC) Enterococcus hirae ATCC 10541 [9]: >60 µg/mL
Minimum inhibitory concentration (MIC) Candida albicans ATCC 10231 [10]: >60 µg/mL
Minimum inhibitory concentration (MIC) Klebsiella pneumonia ATCC 4352 [11]: >60 µg/mL
Minimum inhibitory concentration (MIC) S. hominis [12]: 30 µg/mL (≈ 83.9 µM)
Minimum inhibitory concentration (MIC) E. coli [13]: 120 µg/mL (≈ 336 µM)
Minimum inhibitory concentration (MIC) E. coli NCTC 8196 [13]: >60 µg/mL

COCCc1cc(NCCCCCCCCCN)nc(-c2ccccn2)n1 [compound 78]
Minimum inhibitory concentration (MIC) Staphylococcus aureus ATCC 9144 [1]: *60 μg/mL
Minimum inhibitory concentration (MIC) Micrococcus luteus ATCC 9341 [2]: >60 µg/mL
Minimum inhibitory concentration (MIC) Aspergillus niger ATCC 6275 [3]: >60 µg/mL
Minimum inhibitory concentration (MIC) S. epidermidis ATCC 12228 [4]: *60 μg/mL
Minimum inhibitory concentration (MIC) Salmonella choleraesuis ATCC 10708 [5]: >60 µg/mL
Minimum inhibitory concentration (MIC) Trichophyton mentagrophytes ATCC 9533 [6]: >60 µg/mL
Minimum inhibitory concentration (MIC) Pseudomonas aeruginosa CIP A-22 [7]: >60 µg/mL
Minimum inhibitory concentration (MIC) Epidermophyton floccosum DSM 10709 [8]: >60 µg/mL
Minimum inhibitory concentration (MIC) Enterococcus hirae ATCC 10541 [9]: >60 µg/mL
Minimum inhibitory concentration (MIC) Candida albicans ATCC 10231 [10]: >60 µg/mL
Minimum inhibitory concentration (MIC) Klebsiella pneumonia ATCC 4352 [11]: >60 µg/mL
Minimum inhibitory concentration (MIC) S. hominis [12]: 15 µg/mL (≈ 40.4 µM)
Minimum inhibitory concentration (MIC) E. coli [13]: 60 µg/mL (≈ 161 µM)
Minimum inhibitory concentration (MIC) E. coli NCTC 8196 [13]: >60 µg/mL

COCCc1cc(NCCCCCCCCCCCCN)nc(-c2ccccn2)n1 [compound 79]
Minimum inhibitory concentration (MIC) Staphylococcus aureus ATCC 9144 [1]: *60 μg/mL
Minimum inhibitory concentration (MIC) Micrococcus luteus ATCC 9341 [2]: 60 µg/mL (≈ 145 µM)
Minimum inhibitory concentration (MIC) Aspergillus niger ATCC 6275 [3]: >60 µg/mL
Minimum inhibitory concentration (MIC) S. epidermidis ATCC 12228 [4]: 30 µg/mL (≈ 72.5 µM)
Minimum inhibitory concentration (MIC) Salmonella choleraesuis ATCC 10708 [5]: >60 µg/mL
Minimum inhibitory concentration (MIC) Trichophyton mentagrophytes ATCC 9533 [6]: >60 µg/mL
Minimum inhibitory concentration (MIC) Pseudomonas aeruginosa CIP A-22 [7]: >60 µg/mL
Minimum inhibitory concentration (MIC) Epidermophyton floccosum DSM 10709 [8]: >60 µg/mL
Minimum inhibitory concentration (MIC) Enterococcus hirae ATCC 10541 [9]: >60 µg/mL
Minimum inhibitory concentration (MIC) Candida albicans ATCC 10231 [10]: *30 μg/mL
Minimum inhibitory concentration (MIC) Klebsiella pneumonia ATCC 4352 [11]: >60 µg/mL
Minimum inhibitory concentration (MIC) S. hominis [12]: 10 µg/mL (≈ 24.2 µM)
Minimum inhibitory concentration (MIC) E. coli [13]: 20 µg/mL (≈ 48.4 µM)
Minimum inhibitory concentration (MIC) E. coli NCTC 8196 [13]: 60 µg/mL (≈ 145 µM)

CCCCCCCCCCCNc1nc(-c2ccccn2)nc(C)c1CC [compound 89]
Minimum inhibitory concentration (MIC) Staphylococcus aureus ATCC 9144 [1]: 7.5 µg/mL (≈ 20.3 µM)
Minimum inhibitory concentration (MIC) Micrococcus luteus ATCC 9341 [2]: 1.9 µg/mL (≈ 5.16 µM)
Minimum inhibitory concentration (MIC) Aspergillus niger ATCC 6275 [3]: 30 µg/mL (≈ 81.4 µM)
Minimum inhibitory concentration (MIC) S. epidermidis ATCC 12228 [4]: 7.5 µg/mL (≈ 20.3 µM)
Minimum inhibitory concentration (MIC) Salmonella choleraesuis ATCC 10708 [5]: >60 µg/mL
Minimum inhibitory concentration (MIC) Trichophyton mentagrophytes ATCC 9533 [6]: *7.5 μg/mL
Minimum inhibitory concentration (MIC) Pseudomonas aeruginosa CIP A-22 [7]: >60 µg/mL
Minimum inhibitory concentration (MIC) Epidermophyton floccosum DSM 10709 [8]: 15 µg/mL (≈ 40.7 µM)
Minimum inhibitory concentration (MIC) Enterococcus hirae ATCC 10541 [9]: 7.5 µg/mL (≈ 20.3 µM)
Minimum inhibitory concentration (MIC) Candida albicans ATCC 10231 [10]: 15 µg/mL (≈ 40.7 µM)
Minimum inhibitory concentration (MIC) Klebsiella pneumonia ATCC 4352 [11]: 60 µg/mL (≈ 163 µM)
Minimum inhibitory concentration (MIC) S. hominis [12]: 3.75 µg/mL (≈ 10.2 µM)
Minimum inhibitory concentration (MIC) E. coli [13]: >120 µg/mL
Minimum inhibitory concentration (MIC) E. coli NCTC 8196 [13]: >60 µg/mL

CCCCCCCCCCCCCCCNc1nc(-c2ccccn2)nc(C)c1CC [compound 90]
Minimum inhibitory concentration (MIC) Staphylococcus aureus ATCC 9144 [1]: *30 μg/mL
Minimum inhibitory concentration (MIC) Micrococcus luteus ATCC 9341 [2]: 15 µg/mL (≈ 35.3 µM)
Minimum inhibitory concentration (MIC) Aspergillus niger ATCC 6275 [3]: >120 µg/mL
Minimum inhibitory concentration (MIC) S. epidermidis ATCC 12228 [4]: *30 μg/mL
Minimum inhibitory concentration (MIC) Salmonella choleraesuis ATCC 10708 [5]: >60 µg/mL
Minimum inhibitory concentration (MIC) Trichophyton mentagrophytes ATCC 9533 [6]: >120 µg/mL
Minimum inhibitory concentration (MIC) Pseudomonas aeruginosa CIP A-22 [7]: >60 µg/mL
Minimum inhibitory concentration (MIC) Epidermophyton floccosum DSM 10709 [8]: 60 µg/mL (≈ 141 µM)
Minimum inhibitory concentration (MIC) Enterococcus hirae ATCC 10541 [9]: 30 µg/mL (≈ 70.6 µM)
Minimum inhibitory concentration (MIC) Candida albicans ATCC 10231 [10]: *60 μg/mL
Minimum inhibitory concentration (MIC) Klebsiella pneumonia ATCC 4352 [11]: >60 µg/mL
Minimum inhibitory concentration (MIC) S. hominis [12]: 30 µg/mL (≈ 70.6 µM)
Minimum inhibitory concentration (MIC) E. coli [13]: 120 µg/mL (≈ 283 µM)
Minimum inhibitory concentration (MIC) E. coli NCTC 8196 [13]: >60 µg/mL

CCCCCCCCCCCNc1cc(C)nc(-c2ccccn2)n1 [compound 92]
Minimum inhibitory concentration (MIC) Staphylococcus aureus ATCC 9144 [1]: 3.75 µg/mL (≈ 11 µM)
Minimum inhibitory concentration (MIC) Micrococcus luteus ATCC 9341 [2]: <0.5 µg/mL
Minimum inhibitory concentration (MIC) Aspergillus niger ATCC 6275 [3]: *60 μg/mL
Minimum inhibitory concentration (MIC) S. epidermidis ATCC 12228 [4]: *1.9 μg/mL
Minimum inhibitory concentration (MIC) Salmonella choleraesuis ATCC 10708 [5]: >120 µg/mL
Minimum inhibitory concentration (MIC) Trichophyton mentagrophytes ATCC 9533 [6]: 15 µg/mL (≈ 44.1 µM)
Minimum inhibitory concentration (MIC) Pseudomonas aeruginosa CIP A-22 [7]: >120 µg/mL
Minimum inhibitory concentration (MIC) Epidermophyton floccosum DSM 10709 [8]: 15 µg/mL (≈ 44.1 µM)
Minimum inhibitory concentration (MIC) Enterococcus hirae ATCC 10541 [9]: 3.75 µg/mL (≈ 11 µM)
Minimum inhibitory concentration (MIC) Candida albicans ATCC 10231 [10]: 15 µg/mL (≈ 44.1 µM)
Minimum inhibitory concentration (MIC) Klebsiella pneumonia ATCC 4352 [11]: 120 µg/mL (≈ 352 µM)
Minimum inhibitory concentration (MIC) S. hominis [12]: 3.75 µg/mL (≈ 11 µM)
Minimum inhibitory concentration (MIC) E. coli [13]: >120 µg/mL
Minimum inhibitory concentration (MIC) E. coli NCTC 8196 [13]: >120 µg/mL

CCCCCCCCCCCCCCCNc1cc(C)nc(-c2ccccn2)n1 [compound 93]
Minimum inhibitory concentration (MIC) Staphylococcus aureus ATCC 9144 [1]: 15 µg/mL (≈ 37.8 µM)
Minimum inhibitory concentration (MIC) Micrococcus luteus ATCC 9341 [2]: 1.9 µg/mL (≈ 4.79 µM)
Minimum inhibitory concentration (MIC) Aspergillus niger ATCC 6275 [3]: >60 µg/mL
Minimum inhibitory concentration (MIC) S. epidermidis ATCC 12228 [4]: 7.5 µg/mL (≈ 18.9 µM)
Minimum inhibitory concentration (MIC) Salmonella choleraesuis ATCC 10708 [5]: >120 µg/mL
Minimum inhibitory concentration (MIC) Trichophyton mentagrophytes ATCC 9533 [6]: >60 µg/mL
Minimum inhibitory concentration (MIC) Pseudomonas aeruginosa CIP A-22 [7]: >120 µg/mL
Minimum inhibitory concentration (MIC) Epidermophyton floccosum DSM 10709 [8]: >60 µg/mL
Minimum inhibitory concentration (MIC) Enterococcus hirae ATCC 10541 [9]: 15 µg/mL (≈ 37.8 µM)
Minimum inhibitory concentration (MIC) Candida albicans ATCC 10231 [10]: *120 μg/mL
Minimum inhibitory concentration (MIC) Klebsiella pneumonia ATCC 4352 [11]: >120 µg/mL
Minimum inhibitory concentration (MIC) S. hominis [12]: 7.5 µg/mL (≈ 18.9 µM)
Minimum inhibitory concentration (MIC) E. coli [13]: >120 µg/mL
Minimum inhibitory concentration (MIC) E. coli NCTC 8196 [13]: >120 µg/mL

CCCCCCCCCCCNc1cc(C(C)C)nc(-c2ccccn2)n1 [compound 98]
Minimum inhibitory concentration (MIC) Staphylococcus aureus ATCC 9144 [1]: 1.9 µg/mL (≈ 5.16 µM)
Minimum inhibitory concentration (MIC) Micrococcus luteus ATCC 9341 [2]: <0.5 µg/mL
Minimum inhibitory concentration (MIC) Aspergillus niger ATCC 6275 [3]: >60 µg/mL
Minimum inhibitory concentration (MIC) S. epidermidis ATCC 12228 [4]: 1.9 µg/mL (≈ 5.16 µM)
Minimum inhibitory concentration (MIC) Salmonella choleraesuis ATCC 10708 [5]: >120 µg/mL
Minimum inhibitory concentration (MIC) Trichophyton mentagrophytes ATCC 9533 [6]: >60 µg/mL
Minimum inhibitory concentration (MIC) Pseudomonas aeruginosa CIP A-22 [7]: >120 µg/mL
Minimum inhibitory concentration (MIC) Epidermophyton floccosum DSM 10709 [8]: 15 µg/mL (≈ 40.7 µM)
Minimum inhibitory concentration (MIC) Enterococcus hirae ATCC 10541 [9]: 1.9 µg/mL (≈ 5.16 µM)
Minimum inhibitory concentration (MIC) Candida albicans ATCC 10231 [10]: 30 µg/mL (≈ 81.4 µM)
Minimum inhibitory concentration (MIC) Klebsiella pneumonia ATCC 4352 [11]: 120 µg/mL (≈ 326 µM)
Minimum inhibitory concentration (MIC) S. hominis [12]: 3.75 µg/mL (≈ 10.2 µM)
Minimum inhibitory concentration (MIC) E. coli [13]: >120 µg/mL
Minimum inhibitory concentration (MIC) E. coli NCTC 8196 [13]: 120 µg/mL (≈ 326 µM)
